Laboratory results as given in ChEMBL document CHEMBL1123061, “Potentiation of fasciolicidal agents by benzoyl side chains. Synthesis of benzoylsalicylanilides” (1985).

System: Fasciola hepatica
Assay: In vivo for fasciolicidal activity against Fasciola hepatica infections in rats following s.c. administration.

SMILES | Dose [mg/kg]
Cc1cc(C(=O)c2ccc(Cl)cc2)cc(C(=O)Nc2cc(Cl)cc(Cl)c2)c1O | 100
Cc1cc(C(=O)c2ccc(Cl)cc2)cc(C(=O)Nc2ccc(Br)cc2C(F)(F)F)c1O | 6.3
O=C(c1ccc(Cl)cc1)c1ccc(O)c(C(=O)Nc2ccc([N+](=O)[O-])cc2Cl)c1 | 25
Cc1cc(C(=O)c2ccc(Cl)c(Cl)c2)cc(C(=O)Nc2ccc([N+](=O)[O-])cc2Cl)c1O | 3.1
Cc1cc(C(=O)c2ccc(Br)cc2)cc(C(=O)Nc2ccc([N+](=O)[O-])cc2Cl)c1O | 3.1
Cc1cc(C(=O)c2ccc([N+](=O)[O-])cc2)cc(C(=O)Nc2ccc(Cl)cc2Cl)c1O | 12.5
Cc1cc(C(=O)c2ccc(Cl)cc2)cc(C(=O)Nc2ccc([N+](=O)[O-])cc2Cl)c1O | 6.3
Cc1cc(Cc2ccccc2)cc(C(=O)Nc2ccc(Cl)cc2Cl)c1O | 100
Cc1cc(C(=O)c2ccc(C#N)cc2)cc(C(=O)Nc2ccc([N+](=O)[O-])cc2Cl)c1O | 6.3
Cc1cc(C(=O)c2ccc(Cl)cc2)cc(C(=O)Nc2ccc([N+](=O)[O-])cc2C(F)(F)F)c1O | 6.3
Cc1c(C(=O)c2ccc(Cl)cc2)cc(C(C)(C)C)c(O)c1C(=O)Nc1ccc([N+](=O)[O-])cc1Cl | 1.6
Cc1cc(C(=O)c2ccc(Cl)cc2)cc(C(=O)Nc2ccc(C#N)cc2)c1O | 100
Cc1cc(C(=O)c2ccc(Br)cc2)cc(C(=O)Nc2ccc(Cl)cc2Cl)c1O | 100
Cc1cc(C(=O)c2ccc([N+](=O)[O-])cc2)cc(C(=O)Nc2ccc([N+](=O)[O-])cc2Cl)c1O | 6.3
Cc1cc(C(=O)c2ccc(Cl)cc2)cc(C(=O)Nc2ccc([N+](=O)[O-])cc2Br)c1O | 3.1
Cc1cc(C(=O)c2ccc(Cl)cc2Cl)cc(C(=O)Nc2ccc([N+](=O)[O-])cc2Cl)c1O | 6.3
Cc1cc(C(=O)c2ccc(Cl)cc2)cc(C(=O)Nc2ccc(Cl)c(Cl)c2)c1O | 100
Cc1cc(C(=O)c2ccc(I)cc2)cc(C(=O)Nc2ccc([N+](=O)[O-])cc2Cl)c1O | 12.5
Cc1cc(Oc2ccccc2)cc(C(=O)Nc2ccc(Cl)cc2Cl)c1O | 100
Cc1cc(C(=O)c2ccc(Cl)cc2)c(C)c(C(=O)Nc2ccc([N+](=O)[O-])cc2Cl)c1O | 3.1
O=C(Nc1ccc(Oc2ccc(Cl)cc2)c(Cl)c1)c1cc(I)cc(I)c1O [RAFOXANIDE] | 12.5
